For two molecules, Kd results are on record in paper PMC12463027, “KRAS/ABHD17C/ALOX15B Axis Promotes Pancreatic Cancer Progression via Ferroptosis Evasion” (Advanced Science, 2025).

One experiment addresses T1, p-ABHD17C (Homo sapiens, UniProt Q6PCB6).
T1 sequence (Q6PCB6 1-329): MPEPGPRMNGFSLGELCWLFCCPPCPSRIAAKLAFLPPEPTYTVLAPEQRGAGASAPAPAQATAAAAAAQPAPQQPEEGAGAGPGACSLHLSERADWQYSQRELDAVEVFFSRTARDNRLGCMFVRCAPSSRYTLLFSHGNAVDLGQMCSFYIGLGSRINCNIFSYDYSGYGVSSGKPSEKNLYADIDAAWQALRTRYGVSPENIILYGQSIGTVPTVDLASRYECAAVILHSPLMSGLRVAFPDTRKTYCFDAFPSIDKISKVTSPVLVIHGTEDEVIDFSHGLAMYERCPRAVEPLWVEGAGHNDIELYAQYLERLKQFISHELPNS
Description: SPR (Biacore); co-IP in cells shows disruption of the ABHD17C/ALOX15B interaction. The format is binding. (SPR reads the build-up and loss of mass on a sensor chip optically.)

Experiment [1] deals with T2, ALOX15B immobilised for SPR (human, UniProt O15296 1-676).
T2 construct: ALOX15B, human
T2 sequence (looked up): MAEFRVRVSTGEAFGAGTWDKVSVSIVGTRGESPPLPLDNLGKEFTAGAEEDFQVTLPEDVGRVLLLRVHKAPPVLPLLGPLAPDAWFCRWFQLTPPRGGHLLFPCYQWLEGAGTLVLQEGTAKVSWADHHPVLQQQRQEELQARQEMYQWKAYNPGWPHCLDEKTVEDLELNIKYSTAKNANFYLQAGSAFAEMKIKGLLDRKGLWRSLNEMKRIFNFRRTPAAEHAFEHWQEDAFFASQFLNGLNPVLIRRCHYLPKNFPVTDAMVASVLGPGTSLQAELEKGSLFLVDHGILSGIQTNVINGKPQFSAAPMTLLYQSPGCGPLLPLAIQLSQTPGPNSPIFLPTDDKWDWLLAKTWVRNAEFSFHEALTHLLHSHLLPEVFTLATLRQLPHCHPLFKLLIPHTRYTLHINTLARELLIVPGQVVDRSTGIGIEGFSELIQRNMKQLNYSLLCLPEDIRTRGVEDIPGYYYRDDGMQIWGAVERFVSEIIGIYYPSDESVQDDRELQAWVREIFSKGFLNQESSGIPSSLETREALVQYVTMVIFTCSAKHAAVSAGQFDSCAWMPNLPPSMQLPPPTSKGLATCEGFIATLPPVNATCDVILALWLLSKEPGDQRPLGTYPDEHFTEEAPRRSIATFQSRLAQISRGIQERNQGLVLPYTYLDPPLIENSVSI
As to the kind of experiment: SPR; ALOX15B immobilised on a Series S Sensor Chip, DCAF10 as analyte. Conditions: both partners purified.

A word on the Kd: it is the concentration at which binding is half-saturated. Lower therefore signals tighter binding. For `CO[C@]1(CC[C@@H](C)CO[C@@H]2O[C@H](CO)[C@@H](O)[C@H](O)[C@H]2O)O[C@H]2C[C@H]3[C@@H]4CC=C5C[C@@H](O[C@@H]6O[C@H](CO)[C@@H](O[C@@H]7O[C@@H](C)[C@H](O)[C@@H](O)[C@H]7O)[C@H](O)[C@H]6O[C@@H]6O[C@@H](C)[C@H](O)[C@@H](O)[C@H]6O)CC[C@]5(C)[C@H]4CC[C@]3(C)[C@H]2[C@@H]1C` [methyl protodioscin], on p-ABHD17C, the Kd turned out to be 4800 nM.

B1: recombinant DCAF10 (natural protein, UniProt Q5QP82 1-559, looked up)
chain: MFPFGPHSPGGDGSAGAGAEEPTPHEGQAAATGPPSPLHPGADATHPPPPARSPRRPGAPSLSPAPRSGELGLPGAPESSTASAPGEPSPPSPPCRRPGPDCRAKSRGRHGLGAGLGGPGARLFGWLKERSLGRGLFVDPARDNFRTMTSLYGSIHPADSVYLSTRTHGAVFNLEYSPDGSVLTVACEQTEVLLFDPISSKHIKTLSEAHEDCVNNIRFLDNRLFATCSDDTTIALWDLRKLNTKVCTLHGHTSWVKNIEYDTNTRLLVTSGFDGNVIIWDTNRYTEDGCPHKKFFHTRFLMRMRLTPDCSKMLISTSSGYLLILHDLDLTKSLEVGSYPILRARRTTSSSDLTTSSSSSGPRVSGSPCHHSDSNSSEKHMSRASQREGVSPRNSLEVVTPEVLGESDHGNCITSLQLHPKGWATLLRCSSNSDDEECTCVYEFQEGAPVRPVSPRCSLRLTHYIEEANVGRGYIKELCFSPDGRMISSPHGYGIRLLGFDKQCSELVDCLPKEASPLRVIRSLYSHNDVVLTTKFSPTHCQIASGCLSGRVSLYQPKF
notes: DCAF10, recombinant
In turn, B1 gave a Kd in experiment [1] of 6.96 nM. This counts as single-digit nanomolar.
